# Source: patent US20250197407A1 (Jazz Pharmaceuticals Ireland Limited, priority 2022, published 2025)
# Target: SOS1/KRAS WT (Homo sapiens (Human), UniProt Q07889)
# Assay: SOS1/KRAS WT HTRF binding assay (FRET-based protein-protein interaction)
# Conditions: inhibition of His6-SOS1 (aa564-1049, 40 nM) binding to GST-KRAS-WT (aa1-188, 40 nM); at least two independent replicates; read-out: SOS1/KRAS WT HTRF Binding assay pIC50 (converted)
# Outline: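 Time-resolved FRET at 665 nm, read 4 hr after adding anti-GST-Eu(K) (4 nM) and anti-6His-XL665 (20 nM), tracked SOS1(aa564-1049)–KRAS WT(aa1-188) association. Both proteins were at 40 nM, pre-incubated 60 min at room temperature with compound. Max/min signals came from 0.05% DMSO and 10 μM reference, with four-parameter logistic IC50.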
# Sequence of SOS1/KRAS WT (Q07889 564-1049): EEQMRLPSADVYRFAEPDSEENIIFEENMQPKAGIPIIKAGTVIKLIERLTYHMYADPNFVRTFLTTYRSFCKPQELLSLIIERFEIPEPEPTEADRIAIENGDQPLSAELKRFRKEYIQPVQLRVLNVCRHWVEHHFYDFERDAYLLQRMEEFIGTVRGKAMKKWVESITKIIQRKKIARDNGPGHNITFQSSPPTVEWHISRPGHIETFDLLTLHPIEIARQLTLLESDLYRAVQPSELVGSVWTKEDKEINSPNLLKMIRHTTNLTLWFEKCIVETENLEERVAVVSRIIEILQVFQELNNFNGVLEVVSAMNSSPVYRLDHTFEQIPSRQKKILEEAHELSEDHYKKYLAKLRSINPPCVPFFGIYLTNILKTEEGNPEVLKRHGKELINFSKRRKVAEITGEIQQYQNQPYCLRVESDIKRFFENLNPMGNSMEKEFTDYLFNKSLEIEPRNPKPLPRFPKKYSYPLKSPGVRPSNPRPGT
row,IC50,Compound
1,23.4 nM,"CCC1(OC)C(=O)N(C)c2cc3c(C)nnc(N[C@H](C)c4cccc(C(F)(F)C(C)(C)O)c4C)c3cc21 (stereo partly drawn) [Compound 191, 5-[[(1R)-1-[3-(1,1-difluoro-2-hydroxy-2-methyl-propyl)-2-methyl-phenyl]ethyl]amino]-3-ethyl-3-methoxy-1,8-dimethyl-pyrrolo[2,3-g]phthalazin-2-one]"
2,16.2 nM,"CCC1(OC)C(=O)N(C)c2cc3c(C)nnc(N[C@H](C)c4cccc(C(F)(F)C(C)(C)O)c4)c3cc21 (stereo partly drawn) [Compound 192, 5-[[(1R)-1-[3-(1,1-difluoro-2-hydroxy-2-methyl-propyl)phenyl]ethyl]amino]-3-ethyl-3-methoxy-1,8-dimethyl-pyrrolo[2,3-g]phthalazin-2-one]"
3,20.9 nM,"CCOC1(C)C(=O)N(C)c2cc3c(C)nnc(N[C@H](C)c4cccc(C(F)(F)CO)c4)c3cc21 (stereo partly drawn) [Compound 195, 3-ethoxy-1,3,8-trimethyl-5-[[(1R)-1-[3-(1,1-difluoro-2-hydroxy-ethyl)phenyl]ethyl]amino]pyrrolo [3,2-g]phthalazin-2-one]"
4,25.1 nM,"CCC1(OC)C(=O)N(C)c2cc3c(C)nnc(N[C@H](C)c4cccc(C(F)(F)CO)c4)c3cc21 (stereo partly drawn) [Compound 196, 5-[[(1R)-1-[3-(1,1-difluoro-2-hydroxy-ethyl)phenyl]ethyl]amino]-3-ethyl-3-methoxy-1,8-dimethyl-pyrrolo[2,3-g]phthalazin-2-one]"
5,14.5 nM,"CCC1(OC)C(=O)N(C)c2cc3c(C)nnc(N[C@H](C)c4cccc(C(F)(F)CO)c4F)c3cc21 (stereo partly drawn) [Compound 197, 5-[[(1R)-1-[3-(1,1-difluoro-2-hydroxy-ethyl)-2-fluoro-phenyl]ethyl]amino]-3-ethyl-3-methoxy-1,8-dimethyl-pyrrolo[2,3-g]phthalazin-2-one]"
6,19.5 nM,"CCC1(OC)C(=O)N(C)c2cc3c(C)nnc(N[C@H](C)c4cccc(C(F)(F)CO)c4C)c3cc21 (stereo partly drawn) [Compound 198, 5-[[(1R)-1-[3-(1,1-difluoro-2-hydroxy-ethyl)-2-methyl-phenyl]ethyl]amino]-3-ethyl-3-methoxy-1,8-dimethyl-pyrrolo[2,3-g]phthalazin-2-one]"
7,18.2 nM,"CCOC1(C)C(=O)N(C)c2cc3c(C)nnc(N[C@H](C)c4cccc(C(F)(F)CO)c4F)c3cc21 (stereo partly drawn) [Compound 201, 3-ethoxy-1,3,8-trimethyl-5-[[(1R)-1-[3-(1,1-difluoro-2-hydroxy-ethyl)-2-fluoro-phenyl]ethyl]amino]pyrrolo[3,2-g]phthalazin-2-one]"
8,10.7 nM,"CCC1(OC)C(=O)N(C)c2cc3c(N[C@H](C)c4cccc(C(F)(F)C(C)(C)O)c4)nnc(C)c3cc21 (stereo partly drawn) [Compound 202, 3-ethyl-3-methoxy-1,5-dimethyl-8-[[(1R)-1-[3-(1,1-difluoro-2-hydroxy-2-methyl-propyl)phenyl]ethyl]amino]pyrrolo [2,3-g]phthalazin-2-one]"
9,11.7 nM,"CCC1(OC)C(=O)N(C)c2cc3c(N[C@H](C)c4cccc(C(F)(F)CO)c4C)nnc(C)c3cc21 (stereo partly drawn) [Compound 203, 3-ethyl-3-methoxy-1,5-dimethyl-8-[[(1R)-1-[3-(1,1-difluoro-2-hydroxy-ethyl)-2-methyl-phenyl]ethyl]amino]pyrrolo[2,3-g]phthalazin-2-one]"
10,10 nM,"CCC1(OC)C(=O)N(C)c2cc3c(N[C@H](C)c4cccc(C(F)(F)C(C)(C)O)c4F)nnc(C)c3cc21 (stereo partly drawn) [Compound 204, 3-ethyl-3-methoxy-1,5-dimethyl-8-[[(1R)-1-[3-(1,1-difluoro-2-hydroxy-2-methyl-propyl)-2-fluoro-phenyl]ethyl]amino]pyrrolo[2,3-g]phthalazin-2-one]"
11,14.5 nM,"CCC1(OC)C(=O)N(C)c2cc3c(N[C@H](C)c4cccc(C(F)(F)CO)c4)nnc(C)c3cc21 (stereo partly drawn) [Compound 206, 3-ethyl-3-methoxy-1,5-dimethyl-8-[[(1R)-1-[3-(1,1-difluoro-2-hydroxy-ethyl)phenyl]ethyl]amino]pyrrolo [2,3-g]phthalazin-2-one]"
12,8.51 nM,"CCC1(OC)C(=O)N(C)c2cc3c(N[C@H](C)c4cccc(C(F)(F)CO)c4F)nnc(C)c3cc21 (stereo partly drawn) [Compound 207, 3-ethyl-3-methoxy-1,5-dimethyl-8-[[(1R)-1-[3-(1,1-difluoro-2-hydroxy-ethyl)-2-fluoro-phenyl]ethyl]amino]pyrrolo[2,3-g]phthalazin-2-one]"
13,9.55 nM,"CCC1(OC)C(=O)N(C)c2cc3c(N[C@H](C)c4cccc(C(F)(F)C(C)(C)O)c4C)nnc(C)c3cc21 (stereo partly drawn) [Compound 209, 3-ethyl-3-methoxy-1,5-dimethyl-8-[[(1R)-1-[3-(1,1-difluoro-2-hydroxy-2-methyl-propyl)-2-methyl-phenyl]ethyl]amino]pyrrolo[2,3-g]phthalazin-2-one]"

# Further lines, the compound ahead of its results:
row,Compound,IC50
1,"CCOC1(C)C(=O)N(C)c2cc3c(C)nnc(N[C@H](C)c4cccc(C(F)(F)C(C)(C)O)c4F)c3cc21 (stereo partly drawn) [Compound 190, 3-ethoxy-1,3,8-trimethyl-5-[[(1R)-1-[3-(1,1-difluoro-2-hydroxy-2-methyl-propyl)-2-fluoro-phenyl]ethyl]amino]pyrrolo[3,2-g]phthalazin-2-one]",16.6 nM
2,"Cc1c([C@@H](C)Nc2nnc(C)c3cc4c(cc23)N(C)C(=O)C42CCCC2)cccc1C(F)(F)CO [Compound 193, 1′,5′-dimethyl-8′-[[(1R)-1-[3-(1,1-difluoro-2-hydroxy-ethyl)-2-methyl-phenyl]ethyl]amino]spiro[cyclopentane-1,3′-pyrrolo[2,3-g]phthalazine]-2′-one]",8.71 nM
3,"Cc1nnc(N[C@H](C)c2cccc(C(F)(F)C(C)(C)O)c2F)c2cc3c(cc12)C1(CCCC1)C(=O)N3C [Compound 194, 1′,5′-dimethyl-8′-[[(1R)-1-[3-(1,1-difluoro-2-hydroxy-2-methyl-propyl)-2-fluoro-phenyl]ethyl]amino]spiro [cyclopentane-1,3′-pyrrolo[2,3-g]phthalazine]-2′-one]",8.51 nM
4,"CCOC1(C)C(=O)N(C)c2cc3c(C)nnc(N[C@H](C)c4cccc(C(F)(F)CO)c4C)c3cc21 (stereo partly drawn) [Compound 199, 3-ethoxy-1,3,8-trimethyl-5-[[(1R)-1-[3-(1,1-difluoro-2-hydroxy-ethyl)-2-methyl-phenyl]ethyl]amino]pyrrolo[3,2-g]phthalazin-2-one]",21.9 nM
5,"CCc1nnc(N[C@H](C)c2cccc(C(F)(F)C(C)(C)O)c2F)c2cc3c(cc12)C(C)(OC)C(=O)N3C (stereo partly drawn) [Compound 200, 5-ethyl-3-methoxy-1,3-dimethyl-8-[[(1R)-1-[3-(1,1-difluoro-2-hydroxy-2-methyl-propyl)-2-fluoro-phenyl]ethyl]amino]pyrrolo[2,3-g]phthalazin-2-one]",13.2 nM
6,"Cc1nnc(N[C@H](C)c2cccc(C(F)F)c2)c2cc3c(cc12)n(C)c(=O)n3C(C)(C)C [Compound 205, 3-tert-butyl-5-[[(1R)-1-[3-(difluoromethyl)phenyl]ethyl]amino]-1,8-dimethyl-imidazo[4,5-g]phthalazin-2-one]",11.7 nM
7,"Cc1c([C@@H](C)Nc2nnc(C)c3cc4c(cc23)n(C2CC2)c(=O)n4C)cccc1C(F)(F)C(C)(C)O [Compound 210, 3-cyclopropyl-5-[[(1R)-1-[3-(1,1-difluoro-2-hydroxy-2-methyl-propyl)-2-methyl-phenyl]ethyl]amino]-1,8-dimethyl-imidazo[4,5-g]phthalazin-2-one]",13.2 nM
8,"Cc1c(C(F)F)cccc1[C@@H](C)Nc1nnc(C)c2cc3c(cc12)n(C)c(=O)n3C [Compound 211, 5-[[(1R)-1-[3-(difluoromethyl)-2-methyl-phenyl]ethyl]amino]-1,3,8-trimethyl-imidazo[4,5-g]phthalazin-2-one]",9.77 nM
9,"Cc1cc([C@@H](C)Nc2nnc(C)c3cc4c(cc23)n(C)c(=O)n4C)c(C)c(C(F)(F)CO)c1 [Compound 212, 5-[[(1R)-1-[3-(1,1-difluoro-2-hydroxy-ethyl)-2,5-dimethyl-phenyl]ethyl]amino]-1,3,8-trimethyl-imidazo[4,5-g]phthalazin-2-one]",12.6 nM
10,"Cc1c(C(F)F)cccc1[C@@H](C)Nc1nnc(C)c2cc3c(cc12)n(C1CC1)c(=O)n3C [Compound 213, 3-cyclopropyl-5-[[(1R)-1-[3-(difluoromethyl)-2-methyl-phenyl]ethyl]amino]-1,8-dimethyl-imidazo[4,5-g]phthalazin-2-one]",11 nM
